Measurements taken from PubChem BioAssay (NCI).
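Cells were grown in 96-well plates and exposed to each compound for 48 hours at five concentrations; endpoints were interpolated linearly between bracketing concentrations, or set to the highest concentration if not reached. TGI marks complete inhibition of growth.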

Legend:
Test in all cases: growth of human tumour cells (NCI), 48 h
[1] = tested on: 786-0 renal
[2] = tested on: A498 renal
[3] = tested on: A549 NSCLC
[4] = tested on: ACHN renal
[5] = tested on: CAKI-1 renal
[6] = tested on: CCRF-CEM leukemia
[7] = tested on: COLO 205 colon
[8] = tested on: DLD-1 colon
[9] = tested on: DMS 114 small cell lung
[10] = tested on: DMS 273 small cell lung
[11] = tested on: EKVX NSCLC
[12] = tested on: HCC-2998 colon
[13] = tested on: HCT-116 colon
[14] = tested on: HCT-15 colon
[15] = tested on: HL-60(TB) leukemia
[16] = tested on: HOP-18 NSCLC
[17] = tested on: HOP-62 NSCLC
[18] = tested on: HOP-92 NSCLC
[19] = tested on: HT29 colon
[20] = tested on: IGROV1 ovarian
[21] = tested on: K-562 leukemia
[22] = tested on: KM12 colon
[23] = tested on: KM20L2 colon
[24] = tested on: LOX IMVI melanoma
[25] = tested on: LXFL 529 NSCLC
[26] = tested on: M14 melanoma
[27] = tested on: M19-MEL melanoma
[28] = tested on: MALME-3M melanoma
[29] = tested on: MOLT-4 leukemia
[30] = tested on: NCI-H226 lung
[31] = tested on: NCI-H23 lung
[32] = tested on: NCI-H460 lung
[33] = tested on: NCI-H522 lung
[34] = tested on: OVCAR-3 ovarian
[35] = tested on: OVCAR-4 ovarian
[36] = tested on: OVCAR-5 ovarian
[37] = tested on: OVCAR-8 ovarian
[38] = tested on: RPMI-8226 leukemia
[39] = tested on: RXF 393 renal
[40] = tested on: RXF-631 renal
[41] = tested on: SF-268 CNS
[42] = tested on: SF-295 CNS
[43] = tested on: SF-539 CNS
[44] = tested on: SK-MEL-28 melanoma
[45] = tested on: SK-MEL-5 melanoma
[46] = tested on: SK-OV-3 ovarian
[47] = tested on: SN12C renal
[48] = tested on: SNB-19 CNS
[49] = tested on: SNB-75 CNS
[50] = tested on: SNB-78 CNS
[51] = tested on: SW-620 colon
[52] = tested on: U251 CNS
[53] = tested on: UACC-257 melanoma
[54] = tested on: UACC-62 melanoma
[55] = tested on: UO-31 renal
[56] = tested on: XF 498 CNS
[57] = tested on: BT-549 breast
[58] = tested on: DU-145 prostate
[59] = tested on: HS 578T breast
[60] = tested on: MCF7 breast
[61] = tested on: MDA-MB-231 breast
[62] = tested on: MDA-MB-435
[63] = tested on: MDA-N
[64] = tested on: PC-3 prostate
[65] = tested on: SK-MEL-2 melanoma
[66] = tested on: SR leukemia
[67] = tested on: TK-10 renal

CCc1ccccc1NC(=O)c1cccc([N+](=O)[O-])c1O
TGI [1]: > 100 µM
TGI [2]: 88.2 µM
TGI [3]: > 100 µM
TGI [4]: 62 µM
TGI [5]: > 100 µM
TGI [6]: > 100 µM
TGI [7]: 31.4 µM
TGI [8]: > 100 µM
TGI [9]: 51.5 µM
TGI [10]: 86.2 µM
TGI [11]: > 100 µM
TGI [12]: > 100 µM
TGI [13]: 87.5 µM
TGI [14]: > 100 µM
TGI [15]: > 100 µM
TGI [16]: > 100 µM
TGI [17]: 58 µM
TGI [18]: 45.4 µM
TGI [19]: > 100 µM
TGI [20]: > 100 µM
TGI [21]: > 100 µM
TGI [22]: 48.6 µM
TGI [23]: 93.3 µM
TGI [24]: 55.6 µM
TGI [25]: > 100 µM
TGI [26]: > 100 µM
TGI [27]: 82.4 µM
TGI [28]: > 100 µM
TGI [29]: > 100 µM
TGI [30]: 88.7 µM
TGI [31]: 72.5 µM
TGI [32]: 71 µM
TGI [33]: 62.6 µM
TGI [34]: > 100 µM
TGI [35]: > 100 µM
TGI [36]: 65.1 µM
TGI [37]: > 100 µM
TGI [38]: > 100 µM
TGI [39]: 45.1 µM
TGI [40]: > 100 µM
TGI [41]: > 100 µM
TGI [42]: 32.2 µM
TGI [43]: > 100 µM
TGI [44]: > 100 µM
TGI [45]: 33.9 µM
TGI [46]: > 100 µM
TGI [47]: > 100 µM
TGI [48]: > 100 µM
TGI [49]: 71.8 µM
TGI [50]: 94.2 µM
TGI [51]: > 100 µM
TGI [52]: > 100 µM
TGI [53]: 77 µM
TGI [54]: > 100 µM
TGI [55]: 71.6 µM
TGI [56]: 57.9 µM

O=C1/C(=C\c2ccccc2)CN(C(=O)CCN2CCCCC2)C/C1=C/c1ccccc1
TGI [1]: 4.7 µM
TGI [2]: 7.43 µM
TGI [3]: 10.9 µM
TGI [4]: 4.29 µM
TGI [57]: 1.94 µM
TGI [5]: 3.74 µM
TGI [6]: 0.866 µM
TGI [7]: 3.83 µM
TGI [8]: 3.12 µM
TGI [9]: 3.05 µM
TGI [10]: 3.1 µM
TGI [58]: 17.9 µM
TGI [11]: 10.6 µM
TGI [12]: 2.81 µM
TGI [13]: 0.709 µM
TGI [14]: 4.12 µM
TGI [15]: 1.17 µM
TGI [16]: 7.37 µM
TGI [17]: 25.7 µM
TGI [18]: 10.2 µM
TGI [59]: 5.87 µM
TGI [19]: 2.03 µM
TGI [20]: 4.48 µM
TGI [21]: 0.799 µM
TGI [22]: 1.24 µM
TGI [23]: 2.97 µM
TGI [24]: 0.842 µM
TGI [25]: 3.05 µM
TGI [26]: 4.66 µM
TGI [27]: 1.78 µM
TGI [28]: 5.44 µM
TGI [60]: 1.86 µM
TGI [61]: 3.29 µM
TGI [62]: 6.37 µM
TGI [63]: 5.4 µM
TGI [29]: 0.714 µM
TGI [30]: 16.5 µM
TGI [31]: 4.51 µM
TGI [32]: 5.96 µM
TGI [33]: 2.31 µM
TGI [34]: 6.5 µM
TGI [35]: 4.34 µM
TGI [36]: 3.96 µM
TGI [37]: 5.47 µM
TGI [64]: 3.25 µM
TGI [38]: 0.244 µM
TGI [39]: 3.53 µM
TGI [40]: 4.69 µM
TGI [41]: 4.51 µM
TGI [42]: 3.16 µM
TGI [43]: 5.52 µM
TGI [65]: 4.44 µM
TGI [44]: 5.69 µM
TGI [45]: 3.3 µM
TGI [46]: 9.77 µM
TGI [47]: 2.48 µM
TGI [48]: 4.57 µM
TGI [49]: 6.79 µM
TGI [50]: 10.6 µM
TGI [66]: 14.5 µM
TGI [51]: 0.364 µM
TGI [67]: 10.9 µM
TGI [52]: 1.86 µM
TGI [53]: 3.52 µM
TGI [54]: 3.08 µM
TGI [55]: 4.56 µM
TGI [56]: 3.84 µM

NNC(=O)C(=O)N/N=C1/CCCC1C(=O)CCC(=O)Nc1ccc(Cl)cc1 (stereo unspecified)
TGI [1]: > 100 µM
TGI [2]: > 100 µM
TGI [3]: > 100 µM
TGI [4]: > 100 µM
TGI [5]: > 100 µM
TGI [6]: > 100 µM
TGI [7]: > 100 µM
TGI [8]: > 100 µM
TGI [9]: > 100 µM
TGI [10]: > 100 µM
TGI [11]: > 100 µM
TGI [12]: > 100 µM
TGI [13]: > 100 µM
TGI [14]: > 100 µM
TGI [15]: > 100 µM
TGI [16]: > 100 µM
TGI [17]: > 100 µM
TGI [18]: > 100 µM
TGI [19]: > 100 µM
TGI [20]: > 100 µM
TGI [21]: > 100 µM
TGI [22]: > 100 µM
TGI [23]: > 100 µM
TGI [25]: > 100 µM
TGI [26]: > 100 µM
TGI [27]: > 100 µM
TGI [28]: > 100 µM
TGI [29]: > 100 µM
TGI [30]: > 100 µM
TGI [31]: > 100 µM
TGI [32]: > 100 µM
TGI [33]: > 100 µM
TGI [34]: > 100 µM
TGI [35]: > 100 µM
TGI [36]: > 100 µM
TGI [37]: > 100 µM
TGI [38]: > 100 µM
TGI [39]: > 100 µM
TGI [40]: > 100 µM
TGI [41]: > 100 µM
TGI [42]: > 100 µM
TGI [43]: > 100 µM
TGI [65]: > 100 µM
TGI [44]: > 100 µM
TGI [45]: > 100 µM
TGI [46]: > 100 µM
TGI [47]: > 100 µM
TGI [48]: > 100 µM
TGI [49]: > 100 µM
TGI [50]: > 100 µM
TGI [66]: > 100 µM
TGI [51]: > 100 µM
TGI [67]: > 100 µM
TGI [52]: > 100 µM
TGI [53]: > 100 µM
TGI [54]: 24 µM
TGI [55]: > 100 µM
TGI [56]: > 100 µM
